Reference: US20260263638A1, “COMPOSITIONS AND METHODS TO IMPROVE RNA PROPERTIES USING BASE, PHOSPHODIESTER LINKAGE, SUGAR BACKBONE, AND CAP MODIFICATIONS” (The Broad Institute, Inc., priority 2023, published 2026)

Experiments:
[1] = tested on: plasma tumor necrosis factor alpha (TNF-α); set-up: species or system mice; conditions: mouse, in vivo
Experimental: (§1) To evaluate the in vivo toxicity and immune response, plasma collected on day 7 post mRNA-LNP administration for the hEPO group. ALT and TNF-alpha were measured using ELISA kits for ALT [G-Biosciences, IT5508] and TNF-alpha [R&D Systems, MTA00B] per manufacturer's protocols.

[2] = Quantification of plasma hEPO by ELISA after mRNA-LNP injection; assay type: in vivo; conditions: mice, hEPO mRNA-LNP retro-orbital
Experimental: All animal procedures followed animal care guidelines approved by the Institutional Animal Care and Use Committee (IACUC) of the Broad Institute of MIT and Harvard under animal protocol #0255-08-19. Animal experiments were conducted in compliance with IACUC policies and NIH guidelines. The BALB/cj (male, 6~8 weeks old) mice used for in vivo NanoLuc assay in this study were purchased from The Jackson Laboratory (JAX). The C57BL/6 mice (female, 7 weeks old), used for hEPO assay in this study were purchased from The Jackson Laboratory (JAX).
(§2) mRNA diluted in 50 mM citrate buffer (pH 4) and lipid mix (37.5 mM in ethanol) containing 50 mol % SM-102, 10 mol % DSPC, 38.5 mol % Cholesterol, and 1.5 mol % DMG-PEG2000 were assembled into LNP using a NanoAssemblr Spark instrument [Precision Nanosystems]. Upon formulation, mRNA-LNPs were diluted in 12 mL 1×PBS solution and the buffer was exchanged by concentrating with a 30 kDa spin filter [MilliporeSigma, UFC901008] to remove residue ethanol. Concentrations and encapsulation efficiency of mRNA were determined using Quant-it RiboGreen RNA Assay Kit [ThermoFisher, R11490]. 1 μg NanoLuc or hEPO mRNA-LNP in a total volume of 100 μL was injected through retro orbital injection into each mouse. Four mice were used for each condition of each experiment (NanoLuc imaging, hEPO ELISA, and reticulocyte counting). For NanoLuc imaging, PBS injection was used as negative control. For hEPO/reticulocyte experiments, poly(C)-LNP complex was used as negative control.
At the indicated time points, approximately 100 μL of blood was collected with EDTA-coated capillary tubes from each mouse and then transferred to an EDTA-coated tube. The collected blood samples were centrifuged at 2000 g for 10 min, followed by transferring the resulting plasma into another tube. The hEPO levels in the plasma samples were measured by Human Erythropoietin (EPO) ELISA kit [LEGEND MAX, 442907]. Final concentrations for hEPO were adjusted based on the volume and dilution fold.

reticulocytes = test: Plasma reticulocyte counting by flow cytometry; assay type: in vivo; conditions: mice; day 6 post-administration
Experimental: as §2
10 μL […] sample was added into 1 mL of the Reticulocyte Reagent [BD Bioscience] at the indicated time points and the mixture was incubated at room temperature for 30 minutes with protection from light. The samples were analyzed with Beckman CytoFLEX LX Flow Cytometer with 100,000-event records for each sample. Thiazole orange positive cells are defined as reticulocytes.

[3] = tested on: plasma alanine transaminase (ALT); test: In vivo toxicity assay: plasma ALT ELISA; conditions: mice; hEPO mRNA-LNP groups
Experimental: as §1

Q: Which “Plasma TNF-α (immunogenicity)” value [1] does the source give for “construct S20: hEPO mRNA, two LNAm7G caps, LNA-2OMe 5′ UTR, PS-2MOE_ddC tail, in LNP (SEQ ID NO: 137) (AGATAAATAAAAAA; mRNA with two LNA-m7G caps, LNA/2'-OMe UTR, PS-MOE ddC tail, in LNP, further chemistry not given here)” here?
A: Its value is “No significant changes”.

Q: And the “Plasma hEPO expression remained detectable until” value [2]?
A: Its value is 6 days.

Q: What about the “Time of peak plasma hEPO expression” value [2] of the same substance?
A: Its value is 6 h.

Q: What about the “Peak plasma hEPO expression” value ([2]; 6 hours) of the same substance?
A: The value was 6009±578 mlU/mL.

Q: And the “Increase in reticulocyte counts compared to poly(C)-LNP-treated group” value (reticulocytes)?
A: The value was 64%.

Q: What about the “Reticulocytes, % of total red blood cells” value (reticulocytes) of the same substance?
A: Its value is 6.4±0.2%.

Q: And the “Plasma ALT (toxicity)” value [3]?
A: The value was “No significant changes”.
